Measured values taken from PMC8119374 (Biochimie, 2021).

Target: mitochondrial respiratory Complex I (Mus musculus, UniProt P03888+Q91WD5+Q9DC70)
Assay type: biochemical

Work on `Cc1cc(OCc2nnc(SC3CCCC3)n2-c2cccnc2)ccc1-c1ccc(S(C)(=O)=O)cc1` [NMS-873] yielded an IC50 of 471 nM.
